From US20100173935A1, “Muscarinic Receptor Agonists that are Effective in the Treatment of Pain, Alzheimer's Disease and Schizophrenia” (AstraZeneca AB, priority 2006, published 2010)
Like-named read-outs stand apart in the source and are kept apart here.

Key:
[1] = target: T1, human M2 receptor (Homo sapiens, UniProt P08172); assay: hM2 receptor GTPγS binding; format: biochemical
T1 construct: purchased Perkin-Elmer RBHM2M; host or cells: CHO cell membranes
T1 sequence (P08172 1-466): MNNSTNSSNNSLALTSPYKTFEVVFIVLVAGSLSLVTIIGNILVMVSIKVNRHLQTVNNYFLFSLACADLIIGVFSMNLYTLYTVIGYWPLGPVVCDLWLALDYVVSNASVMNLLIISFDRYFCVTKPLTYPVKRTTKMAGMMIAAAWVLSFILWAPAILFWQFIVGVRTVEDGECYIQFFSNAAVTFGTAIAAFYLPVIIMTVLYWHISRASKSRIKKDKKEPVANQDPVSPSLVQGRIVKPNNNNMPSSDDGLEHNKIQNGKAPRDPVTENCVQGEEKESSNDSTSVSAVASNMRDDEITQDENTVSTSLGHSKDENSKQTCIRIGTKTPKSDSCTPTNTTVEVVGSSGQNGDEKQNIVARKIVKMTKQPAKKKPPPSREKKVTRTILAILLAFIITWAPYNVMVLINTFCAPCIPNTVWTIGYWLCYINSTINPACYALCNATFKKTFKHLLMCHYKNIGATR
Experimental: Membranes produced from Chinese hamster ovary cells (CHO) expressing the cloned human M2 receptor (human Muscarinic receptor subtype 2, gene bank access NM_000739), were obtained from Perkin-Elmer (RBHM2M). The membranes were thawed at 37° C., passed 3 times through a 23-gauge blunt-end needle, diluted in the GTPγS binding buffer (50 mM Hepes, 20 mM NaOH, 100 mM NaCl, 1 mM EDTA, 5 mM MgCl2, pH 7.4, […] DTT). The EC50, IC50 and Emax of the compounds of the invention were evaluated from 10-point dose-response curves (three fold concentration range) done in 60 μl in 384-well non-specific binding surface plate (Corning). Ten microliters from the dose-response curves plate (5× concentration) were transferred to another 384 well plate containing the following: 10 μg of hM2 membranes, 500 μg of Flashblue beads (Perkin-Elmer) and GDP in a 25 μl volume. An additional 15 μl containing 3.3× (55000 dpm) of GTRγ35S (0.4 nM final) were added to the wells resulting in a total well volume of 50 μl. Basal and maximal stimulated [^35S]GTPγS binding were determined in absence and presence of 30 μM of acetylcholine agonist. The membranes/beads mix were pre-incubated for 15 minutes at room temperature with 25 μM GDP prior to distribution in plates (12.5 μM final). The reversal of acetylcholine-induced stimulation (2 μM final) of [^35S]GTPγS binding was used to assay the antagonist properties (IC50) of the compounds. The plates were incubated for 60 minutes at room temperature with shaking, then centrifuged at 2000 rpm for 5 minutes. The radioactivity (cpm) were counted in a Trilux (Perkin-Elmer).
Values of EC50, IC50 and Emax were obtained using sigmoidal fits of a non-linear curve-fitting program (XLfit version 5.0.6 from ID Business Solutions Limited, Guildford, UK) of percent stimulated [^35S]GTPγS binding vs. log(molar ligand).
All EC50 and IC50 values are reported as arithmetic means t standard error of mean of ‘n’ independent experiments. […] The IC50 was the concentration of the compound of the invention at which 50% inhibition of acetylcholine [^35S]GTPγS binding stimulation has been observed.

[2] = target: T2, hM3 (human Muscarinic receptor subtype 3) (Homo sapiens, UniProt P20309); assay: Human M3 calcium mobilization FLIPR assay; format: cell-based; conditions: CHO cells expressing hM3, Ca2+ release
T2 construct: expressed in transfected cells; host or cells: CHO cells (ATCC)
Experimental: The compound activity in the present invention (EC50 or IC50) was measured using a 384 plate-based imaging assay that monitors drug induced intracellular Ca^2+ release in whole cells. Activation of hM1 (human Muscarinic receptor subtype 1, gene bank access NM_000738), rM1 (rat Muscarinic receptor subtype 1, gene bank access NM_080773), hM3 (human Muscarinic receptor subtype 3, gene bank access NM_000740NM_000740) and hM5 (human Muscarinic receptor subtype 5, gene bank access NM_0121258), receptors expressed in CHO cells (chinese hamster ovary cells, ATCC) was quantified in a Molecular Devices FLIPR II™ instrument as an increase in fluorescent signal. Inhibition of hM3 and hM5 by compounds was determined by the decrease in fluorescent signal in response to 20 nM carbachol activation.
CHO cells were plated in 384-black polylysine coated plate (Costar) at 8000 cells/well/50 μl for 24 hours or 4000 cells/well for 48 hours in a humidified incubator (5% CO2 and 37° C.) in DMEM/F12 medium without selection agent. Prior to the experiment the cell culture medium was removed from the plates by inversion. A loading solution of 30 μl of Hank's balanced salt solution, 10 mM Hepes and 2.5 mM Probenicid at Ph 7.4 (Cat no. 311-520-VL, Wisent) with 2 μM calcium indicator dye (FLUO-3AM, Molecular Probes F14202) was added to each well. Plates were incubated at 37° C. for 60 minutes prior to start the experiment. The incubation was terminated by washing the cells four times in assay buffer, leaving a residual 25 μl buffer per well. Cell plates were then transferred to the FLIPR, ready for compound additions.
The day of experiment, carbachol and compounds were diluted in three-fold concentration range (10 points serial dilution) for addition by FLIPR instrument. For all calcium assays, a baseline reading was taken for 30 seconds followed by the addition of 12.5 μl (25 μl for hM1 and rM1) of compounds, resulting in a total well volume of 37.5 μl (50 μl for hM1 and rM1). Data were collected every 1.6 seconds for 300 seconds. For hM3 and hM5 an additional 12.5 μl of carbachol (20 nM final) was added at 300 seconds. After this addition of carbachol (producing a final volume of 50 μl), the FLIPR continued to collect data every 2 seconds for 240 seconds. The fluorescence emission was read using filter 1 (emission 520-545 nm) by the FLIPR on board CCD camera.
Calcium mobilization output data were calculated as the maximal relative fluorescence unit (RFU) minus the minal value for both compound and agonist reading frame (except for hM1 and rM1 using only the maximal RFU). Data were analyzed using sigmoidal fits of a non-linear curve-fitting program (XLfit version 5.0.6 from ID Business Solutions Limited, Guildford, UK). All EC50 and IC50 values are reported as arithmetic means±standard error of mean of ‘n’ independent experiments.

[3] = CHO membranes expressing cloned human M2, [35S]GTPγS binding, read-out: hM2 EC50

T2 sequence (P20309 whole entry): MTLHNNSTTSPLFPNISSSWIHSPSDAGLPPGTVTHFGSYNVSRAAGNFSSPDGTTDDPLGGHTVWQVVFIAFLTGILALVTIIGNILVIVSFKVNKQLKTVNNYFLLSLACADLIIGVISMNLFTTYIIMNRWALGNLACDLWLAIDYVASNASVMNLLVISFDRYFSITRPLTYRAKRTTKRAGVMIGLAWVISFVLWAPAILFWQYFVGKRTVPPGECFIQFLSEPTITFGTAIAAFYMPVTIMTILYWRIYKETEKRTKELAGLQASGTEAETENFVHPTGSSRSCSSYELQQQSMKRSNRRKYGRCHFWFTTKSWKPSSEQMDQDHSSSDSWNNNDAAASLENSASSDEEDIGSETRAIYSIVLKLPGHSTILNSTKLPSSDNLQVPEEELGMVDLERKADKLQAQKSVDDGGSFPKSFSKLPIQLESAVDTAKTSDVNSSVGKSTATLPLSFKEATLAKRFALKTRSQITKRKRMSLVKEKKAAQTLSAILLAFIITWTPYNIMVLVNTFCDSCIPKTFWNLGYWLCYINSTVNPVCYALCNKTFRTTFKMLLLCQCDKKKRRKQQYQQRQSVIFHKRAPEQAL

Row | Structure (SMILES) | EC50 [1] [µM] | EC50 [2] [µM] | EC50 [1, 3] [µM]
1 | CCOC(=O)N1CC[C@H](N2CCC(n3c(=O)[nH]c4ccc(F)cc43)CC2)C1 (single isomer, unassigned) [Example 35] | > 30 | 5.96 | –
2 | CCOC(=O)N1CC[C@H](N2CCC(n3c(=O)[nH]c4ccc(Cl)cc43)CC2)C1 [Example 42, Ethyl (3S)-3-[4-(6-chloro-2-oxo-2,3-dihydro-1H-benzimidazol-1-yl)piperidin-1-yl]pyrrolidine-1-carboxylate] | 1.2 | – | –
3 | CCOC(=O)N1CC[C@H](N2CCC(N3C(=O)Cc4ccccc43)CC2)C1 [Example 26, Ethyl (3S)-3-[4-(2-oxo-2,3-dihydro-1H-indol-1-yl)piperidin-1-yl]pyrrolidine-1-carboxylate] | 7.45 | > 40 | –
4 | CCOC(=O)N1CC[C@@H](N2CCC(n3c(=O)[nH]c4ccc(F)cc43)CC2)C1 (single isomer, unassigned) [Example 36] | 4.65 | > 40 | –
5 | Cn1c(=O)n(C2CCN([C@H]3CCN(C(=O)CCN4CCCC4=O)C3)CC2)c2ccccc21 [Example 24, 1-methyl-3-(1-{(3S)-1-[3-(2-oxopyrrolidin-1-yl)propanoyl]pyrrolidin-3-yl}piperidin-4-yl)-1,3-dihydro-2H-benzimidazol-2-one] | – | > 40 | > 30
6 | O=C1CCCN1CCCC(=O)N1CC[C@H](N2CCC(n3c(=O)[nH]c4ccccc43)CC2)C1 [Example 22, 1-(1-{(3S)-1-[4-(2-oxopyrrolidin-1-yl)butanoyl]pyrrolidin-3-yl}piperidin-4-yl)-1,3-dihydro-2H-benzimidazol-2-one] | > 30 | – | –
7 | CCOC(=O)N1CCC(N2CCC(C3C(=O)Nc4ccccc43)CC2)C1 (centres unmarked) [Example 13, Ethyl 3-[4-(2-oxo-2,3-dihydro-1H-indol-3-yl)piperidin-1-yl]pyrrolidine-1-carboxylate] | – | > 40 | 3.54
8 | CCOC(=O)N1CC[C@@H](N2CCC(n3c(=O)[nH]c4ccccc43)CC2)C1 [Example 16, Ethyl (3R)-3-[4-(2-oxo-2,3-dihydro-1H-benzimidazol-1-yl)piperidin-1-yl]pyrrolidine-1-carboxylate] | – | > 40 | 3.29
9 | O=C1CCCN1CCC(=O)N1CC[C@H](N2CCC(N3C(=O)Cc4ccccc43)CC2)C1 [Example 29, 1-(1-{(3S)-1-[3-(2-oxopyrrolidin-1-yl)propanoyl]pyrrolidin-3-yl}piperidin-4-yl)-1,3-dihydro-2H-indol-2-one] | 1.75 | 2.5 | –
10 | O=C(C1CCCC1)N1CC[C@H](N2CCC(n3c(=O)[nH]c4ccccc43)CC2)C1 [Example 19, 1-{1-[(3S)-1-(cyclopentylcarbonyl)pyrrolidin-3-yl]piperidin-4-yl}-1,3-dihydro-2H-benzimidazol-2-one] | 0.245 | 2.08 | –
11 | CCOC(=O)N1CC[C@H](N2CCC(n3c(=O)[nH]c4ccc(C#N)cc43)CC2)C1 [Example 41, Ethyl (3S)-3-[4-(6-cyano-2-oxo-2,3-dihydro-1H-benzimidazol-1-yl)piperidin-1-yl]pyrrolidine-1-carboxylate] | > 3.33 | 2.68 | –
